Source: BigSolDB 2.1

O=C(O)CNC(=O)C(=O)NCC(=O)O
solubility (mole fraction)
Conditions | 293.15 K | 298.15 K | 303.15 K | 308.15 K | 313.15 K | 318.15 K | 323.15 K | 328.15 K | 333.15 K
in DMF | 0.0292 | 0.0401 | 0.0519 | 0.0629 | 0.0732 | 0.082 | 0.0879 | 0.0909 | 0.0923
in DMSO | 0.0675 | 0.0736 | 0.0807 | 0.0879 | 0.0963 | 0.105 | 0.114 | 0.124 | 0.136
in THF | 3.5e-06 | 1.41e-05 | 4.17e-05 | 9.96e-05 | 0.000203 | 0.000354 | 0.000527 | 0.000715 | 0.000892
in acetonitrile | 1.6e-06 | 3.2e-06 | 5.6e-06 | 9.2e-06 | 1.41e-05 | 2.01e-05 | 2.73e-05 | 3.62e-05 | 4.71e-05
in ethanol | 2.08e-05 | 3.75e-05 | 6.27e-05 | 0.000104 | 0.000155 | 0.000216 | 0.00029 | 0.000382 | 0.0005
in ethyl acetate | 4.3e-06 | 6e-06 | 7.8e-06 | 1.04e-05 | 1.38e-05 | 1.81e-05 | 2.24e-05 | 2.76e-05 | 3.37e-05
in isopropanol | 7.7e-06 | 1.47e-05 | 2.59e-05 | 4.71e-05 | 7.77e-05 | 0.000118 | 0.000174 | 0.000246 | 0.000355
in methanol | 0.000159 | 0.000222 | 0.000303 | 0.000409 | 0.000527 | 0.000663 | 0.000816 | 0.000997 | 0.00121
in n-butanol | 2.9e-06 | 5.3e-06 | 1e-05 | 1.77e-05 | 3.06e-05 | 5.12e-05 | 7.95e-05 | 0.00012 | 0.00019
in n-propanol | 5.9e-06 | 8.2e-06 | 1.3e-05 | 2.06e-05 | 3.41e-05 | 5.83e-05 | 0.000104 | 0.000198 | 0.000355
in water | 0.000127 | 0.000183 | 0.000267 | 0.000362 | 0.00048 | 0.000634 | 0.000816 | 0.00105 | 0.00136
